Data reported in ChEMBL document CHEMBL1201862, “PubChem BioAssay data set” (2004).
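Results reflect a 48-hour exposure of cells in 96-well plates to compound at five concentrations. GI50 marks 50% less growth.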 Activity calls are given as the source filed them. No stated cut-off is given here; in the data, active = GI50 up to about 1.1 µM and inactive = higher.

Key:
Assay in all cases: DTP human tumour cell line panel, 48 h
HOP-62 = test system: HOP-62
BT-549 = test system: BT-549
NCI-H23 = test system: NCI-H23
IGROV-1 = test system: IGROV-1
MCF7 = test system: MCF7
SK-MEL-5 = test system: SK-MEL-5
SF-268 = test system: SF-268
Hs-578T = test system: Hs-578T
TK-10 = test system: TK-10
UACC-62 = test system: UACC-62
786-0 = test system: 786-0
HCT-15 = test system: HCT-15
OVCAR-4 = test system: OVCAR-4
LOX IMVI = test system: LOX IMVI
RPMI-8226 = test system: RPMI-8226
SN12C = test system: SN12C
UACC-257 = test system: UACC-257
NCI-H460 = test system: NCI-H460
HL-60 = test system: HL-60
SK-MEL-28 = test system: SK-MEL-28
SNB-75 = test system: SNB-75
M14 = test system: M14
NCI-H522 = test system: NCI-H522
KM12 = test system: KM12
NCI/ADR-RES = test system: NCI/ADR-RES
SK-OV-3 = test system: SK-OV-3
DU-145 = test system: DU-145
PC-3 = test system: PC-3
Malme-3M = test system: Malme-3M
SR = test system: SR
U-251 = test system: U-251
MOLT-4 = test system: MOLT-4
RXF 393 = test system: RXF 393
SNB-19 = test system: SNB-19
CCRF-CEM = test system: CCRF-CEM
SW-620 = test system: SW-620
UO-31 = test system: UO-31
T47D = test system: T47D
K562 = test system: K562
HCT-116 = test system: HCT-116
SF-295 = test system: SF-295
MDA-N = test system: MDA-N
COLO 205 = test system: COLO 205
MDA-MB-231 = test system: MDA-MB-231
HOP-92 = test system: HOP-92
A549 = test system: A549
SK-MEL-2 = test system: SK-MEL-2
OVCAR-8 = test system: OVCAR-8
SF-539 = test system: SF-539
ACHN = test system: ACHN
HT-29 = test system: HT-29
OVCAR-5 = test system: OVCAR-5
OVCAR-3 = test system: OVCAR-3
CAKI-1 = test system: CAKI-1
A498 = test system: A498
NCI-H226 = test system: NCI-H226
EKVX = test system: EKVX
MDA-MB-435 = test system: MDA-MB-435
HCC 2998 = test system: HCC 2998

## Cc1ccc(S(=O)(=O)NC(=O)NC(CCCCN)C(=O)O)cc1 (stereo not given)
HOP-62
  GI50: > 100 µM (inactive)
BT-549
  GI50: > 100 µM (inactive)
NCI-H23
  GI50: > 100 µM (inactive)
IGROV-1
  GI50: > 100 µM (inactive)
MCF7
  GI50: > 100 µM (inactive)
SK-MEL-5
  GI50: > 100 µM (inactive)
SF-268
  GI50: > 100 µM (inactive)
Hs-578T
  GI50: > 100 µM (inactive)
TK-10
  GI50: > 100 µM (inactive)
UACC-62
  GI50: > 100 µM (inactive)
786-0
  GI50: > 100 µM (inactive)
HCT-15
  GI50: > 100 µM
OVCAR-4
  GI50: > 100 µM (inactive)
LOX IMVI
  GI50: > 100 µM (inactive)
RPMI-8226
  GI50: > 100 µM (inactive)
SN12C
  GI50: > 100 µM (inactive)
UACC-257
  GI50: > 100 µM (inactive)
NCI-H460
  GI50: > 100 µM (inactive)
HL-60
  GI50: > 100 µM (inactive)
SK-MEL-28
  GI50: > 100 µM (inactive)
SNB-75
  GI50: > 100 µM (inactive)
M14
  GI50: > 100 µM (inactive)
NCI-H522
  GI50: > 100 µM (inactive)
KM12
  GI50: > 100 µM (inactive)
NCI/ADR-RES
  GI50: > 100 µM (inactive)
SK-OV-3
  GI50: > 100 µM (inactive)
DU-145
  GI50: > 100 µM (inactive)
PC-3
  GI50: > 100 µM (inactive)
Malme-3M
  GI50: > 100 µM (inactive)
SR
  GI50: > 100 µM (inactive)
U-251
  GI50: > 100 µM (inactive)
MOLT-4
  GI50: > 100 µM (inactive)
RXF 393
  GI50: > 100 µM (inactive)
SNB-19
  GI50: > 100 µM (inactive)
CCRF-CEM
  GI50: > 100 µM (inactive)
SW-620
  GI50: > 100 µM (inactive)
UO-31
  GI50: > 100 µM (inactive)
T47D
  GI50: > 100 µM (inactive)
K562
  GI50: > 100 µM (inactive)
HCT-116
  GI50: > 100 µM (inactive)
SF-295
  GI50: > 100 µM (inactive)
MDA-N
  GI50: > 100 µM (inactive)
COLO 205
  GI50: > 100 µM (inactive)
MDA-MB-231
  GI50: > 100 µM (inactive)
HOP-92
  GI50: 70 µM (inactive)
A549
  GI50: > 100 µM (inactive)
SK-MEL-2
  GI50: > 100 µM (inactive)
OVCAR-8
  GI50: > 100 µM (inactive)
SF-539
  GI50: > 100 µM (inactive)
ACHN
  GI50: > 100 µM (inactive)

## O=C(CCC(NC(=O)OCc1ccccc1)C(=O)OCc1ccccc1)Nc1ccc(OCc2ccccc2)cc1 (stereo not given)
HOP-62
  GI50: > 78.7 µM (inactive)
BT-549
  GI50: > 10 µM (inactive)
NCI-H23
  GI50: 16.3 µM (inactive)
IGROV-1
  GI50: > 31.6 µM (inactive)
MCF7
  GI50: 13 µM (inactive)
SK-MEL-5
  GI50: > 10 µM (inactive)
HT-29
  GI50: 26.6 µM (inactive)
SF-268
  GI50: 26.4 µM (inactive)
Hs-578T
  GI50: 18.3 µM (inactive)
TK-10
  GI50: > 31.6 µM (inactive)
UACC-62
  GI50: > 31.6 µM (inactive)
786-0
  GI50: 12.6 µM (inactive)
HCT-15
  GI50: 13.1 µM
OVCAR-4
  GI50: 25.2 µM (inactive)
LOX IMVI
  GI50: > 31.6 µM (inactive)
RPMI-8226
  GI50: > 10 µM (inactive)
SN12C
  GI50: > 31.6 µM (inactive)
UACC-257
  GI50: > 31.6 µM (inactive)
NCI-H460
  GI50: 15.6 µM (inactive)
HL-60
  GI50: > 31.6 µM (inactive)
SK-MEL-28
  GI50: > 31.6 µM (inactive)
SNB-75
  GI50: > 31.6 µM (inactive)
M14
  GI50: > 75.7 µM (inactive)
OVCAR-5
  GI50: > 100 µM (inactive)
OVCAR-3
  GI50: > 84.1 µM (inactive)
NCI-H522
  GI50: > 100 µM (inactive)
KM12
  GI50: > 31.6 µM (inactive)
NCI/ADR-RES
  GI50: 17.5 µM (inactive)
CAKI-1
  GI50: > 31.6 µM (inactive)
SK-OV-3
  GI50: > 31.6 µM (inactive)
DU-145
  GI50: > 31.6 µM (inactive)
PC-3
  GI50: 13.2 µM (inactive)
A498
  GI50: > 10 µM (inactive)
Malme-3M
  GI50: > 31.6 µM (inactive)
NCI-H226
  GI50: > 31.6 µM (inactive)
EKVX
  GI50: > 31.6 µM (inactive)
SR
  GI50: 27.3 µM (inactive)
U-251
  GI50: 17.1 µM (inactive)
MOLT-4
  GI50: 24.6 µM (inactive)
RXF 393
  GI50: 28.3 µM (inactive)
SNB-19
  GI50: 21.7 µM (inactive)
CCRF-CEM
  GI50: 21.8 µM (inactive)
SW-620
  GI50: 25.7 µM (inactive)
UO-31
  GI50: > 10 µM (inactive)
T47D
  GI50: 18.8 µM (inactive)
K562
  GI50: 27.2 µM (inactive)
HCT-116
  GI50: 11.4 µM (inactive)
SF-295
  GI50: > 31.6 µM (inactive)
COLO 205
  GI50: 25.8 µM (inactive)
MDA-MB-231
  GI50: 15.3 µM (inactive)
HOP-92
  GI50: > 31.6 µM (inactive)
MDA-MB-435
  GI50: 17 µM (inactive)
A549
  GI50: 19.3 µM (inactive)
HCC 2998
  GI50: > 31.6 µM (inactive)
SK-MEL-2
  GI50: > 10 µM (inactive)
OVCAR-8
  GI50: 14.1 µM (inactive)
SF-539
  GI50: > 31.6 µM (inactive)
ACHN
  GI50: 29.6 µM (inactive)

## NCCCCNCCCNC(=O)c1csc(-c2nc(CCN)sc2Cl)n1
HOP-62
  GI50: > 100 µM (inactive)
BT-549
  GI50: > 100 µM (inactive)
NCI-H23
  GI50: > 100 µM (inactive)
IGROV-1
  GI50: > 100 µM (inactive)
MCF7
  GI50: > 100 µM (inactive)
SK-MEL-5
  GI50: > 100 µM (inactive)
HT-29
  GI50: > 100 µM (inactive)
SF-268
  GI50: > 100 µM (inactive)
Hs-578T
  GI50: > 100 µM (inactive)
TK-10
  GI50: > 100 µM (inactive)
UACC-62
  GI50: > 100 µM (inactive)
786-0
  GI50: > 100 µM (inactive)
HCT-15
  GI50: > 100 µM
RPMI-8226
  GI50: > 100 µM (inactive)
SN12C
  GI50: > 100 µM (inactive)
UACC-257
  GI50: > 100 µM (inactive)
NCI-H460
  GI50: > 100 µM (inactive)
HL-60
  GI50: > 100 µM (inactive)
SK-MEL-28
  GI50: > 100 µM (inactive)
SNB-75
  GI50: > 100 µM (inactive)
M14
  GI50: > 100 µM (inactive)
OVCAR-5
  GI50: > 100 µM (inactive)
OVCAR-3
  GI50: > 100 µM (inactive)
KM12
  GI50: > 100 µM (inactive)
NCI/ADR-RES
  GI50: > 100 µM (inactive)
SK-OV-3
  GI50: > 100 µM (inactive)
DU-145
  GI50: > 100 µM (inactive)
PC-3
  GI50: > 100 µM (inactive)
A498
  GI50: > 100 µM (inactive)
Malme-3M
  GI50: > 100 µM (inactive)
NCI-H226
  GI50: > 100 µM (inactive)
EKVX
  GI50: > 100 µM (inactive)
U-251
  GI50: > 100 µM (inactive)
MOLT-4
  GI50: > 100 µM (inactive)
RXF 393
  GI50: > 100 µM (inactive)
SNB-19
  GI50: > 100 µM (inactive)
CCRF-CEM
  GI50: > 100 µM (inactive)
SW-620
  GI50: > 100 µM (inactive)
UO-31
  GI50: > 100 µM (inactive)
T47D
  GI50: > 100 µM (inactive)
K562
  GI50: > 100 µM (inactive)
HCT-116
  GI50: > 100 µM (inactive)
SF-295
  GI50: > 100 µM (inactive)
MDA-N
  GI50: > 100 µM (inactive)
COLO 205
  GI50: > 100 µM (inactive)
HOP-92
  GI50: 8.85 µM (inactive)
MDA-MB-435
  GI50: > 100 µM (inactive)
A549
  GI50: > 100 µM (inactive)
HCC 2998
  GI50: 70.8 µM (inactive)
OVCAR-8
  GI50: > 100 µM (inactive)
SF-539
  GI50: > 100 µM (inactive)
ACHN
  GI50: > 100 µM (inactive)
